In ChEMBL document CHEMBL1140122 (J Med Chem, 2008):
pIC50: −log10 of the molar value.

Key:
M14 = experiment: Cytotoxicity against human M14 cells after 48 hrs; format: functional; details: M14, 48 h
NCI-H460 = experiment: Cytotoxicity against human H460 cells after 48 hrs; format: functional; details: NCI-H460, 48 h
DU-145 = experiment: Cytotoxicity against human DU145 cells after 48 hrs; format: functional; details: DU-145, 48 h
K562 = experiment: Cytotoxicity against human K562 cells after 48 hrs; format: functional; details: K562, 48 h
[1] = Cytotoxicity against BALB mouse 3T3 cells after 48 hrs; format: cell-based; details: BALB 3T3 cells
PC-3 = experiment: Cytotoxicity against human PC3 cells after 48 hrs; format: functional; details: PC-3, 48 h
Trypanosoma cruzi = experiment: Antitrypanosomal activity against Trypanosoma cruzi Tulahuen C4 in african green monkey Vero cells after 120 hrs; format: functional, organism-based
HT-29 = experiment: Cytotoxicity against human HT29 cells after 48 hrs; format: functional; details: HT-29, 48 h
MCF7 = experiment: Cytotoxicity against human MCF7 cells after 48 hrs; format: functional; details: MCF7, 48 h
[2] = Selectivity index, IC50 for african green monkey Vero cells to IC50 for Trypanosoma cruzi Tulahuen C4; format: functional
Vero = experiment: Cytotoxicity against african green monkey Vero cells by MTT assay; format: cell-based; details: Chlorocebus sabaeus

Row | SMILES | GI50 (M14) [µM] | GI50 (NCI-H460) [µM] | GI50 (DU-145) [µM] | GI50 (K562) [µM] | GI50 at 48 h [1] [µM] | GI50 (PC-3) [µM] | pIC50 (Trypanosoma cruzi) | GI50 (HT-29) [µM] | GI50 (MCF7) [µM] | Ratio IC50 [2] | pIC50 (Vero)
1 | COc1ccc(CCC(=O)c2c(O)cc(O)cc2OC)cc1 | 109 | 128 | > 206 | 22.8 | > 206 | 59.9 | < 4.60 | > 206 | 65.5 |  | 
2 | COc1cc(O)c(C(=O)/C=C/c2ccc3c(c2)OCO3)c(OC)c1 | > 190 | > 190 | > 190 | 18.9 | 39 | 118 | < 4.60 | > 190 | 140 |  | 
3 | C=CCOc1cc(OC)c(C(=O)/C=C/c2ccccn2)c(OCC=C)c1 |  |  |  |  |  |  | 5.72 |  |  | 1.5 | 5.55
4 | C=CCOc1cc(OC)c(C(=O)/C=C/c2ccc[nH]2)c(OCC=C)c1 |  |  |  |  |  |  | < 4.00 |  |  |  | 
5 | C=CCOc1cc(OC)c(C(=O)/C=C/c2ccco2)c(OCC=C)c1 |  |  |  |  |  |  | 4.91 |  |  | 15.6 | 
6 | C=CCOc1cc(OC)c(C(=O)/C=C/c2ccncc2)c(OCC=C)c1 |  |  |  |  |  |  | 5.82 |  |  | 1.9 | 5.55
7 | C=CCOc1cc(OC)c(C(=O)/C=C/c2ccc(C(F)(F)F)cc2)c(OCC=C)c1 |  |  |  |  |  |  | 4.81 |  |  | 0.5 | 5.14
8 | C=CCOc1cc(OC)c(C(=O)/C=C/c2ccc(F)cc2)c(OCC=C)c1 |  |  |  |  |  |  | 4.84 |  |  | 0.9 | 4.87
9 | C=CCOc1cc(OC)c(C(=O)/C=C/c2cc(OC)c(OC)c(OC)c2)c(OCC=C)c1 |  |  |  |  |  |  | 5.47 |  |  | 12 | 4.39
10 | C=CCOc1cc(OC)c(C(=O)/C=C/c2ccc(C)cc2)c(OCC=C)c1 |  |  |  |  |  |  | 4.76 |  |  | 12.3 | 
11 | C=CCOc1cc(OC)c(C(=O)/C=C/c2cccc(OC)c2)c(OCC=C)c1 |  |  |  |  |  |  | 4.85 |  |  | 9.9 | 
12 | C=CCOc1cc(OC)c(C(=O)/C=C/C=C/c2ccccc2)c(OCC=C)c1 |  |  |  |  |  |  | < 4.60 |  |  |  | 
13 | COc1cc(O)c(C(=O)CCc2ccc3c(c2)OCO3)c(OC)c1 | 82 | 105 | 60.2 | 28.2 | 21.5 | 39.1 | < 4.00 | 145 | 42.4 |  | 
14 | COc1ccc(/C=C/C(=O)c2c(O)cc(O)cc2OC)cc1 | 19.6 | 14 | 9 | 17 | 6.7 | 19.3 | < 4.60 | 21.6 | 17.3 |  | 
15 | C=CCOc1cc(OC)c(C(=O)/C=C/c2ccc(O)c(OC)c2)c(OCC=C)c1 |  |  |  |  |  |  | < 4.60 |  |  |  | 
16 | C=CCOc1cc(OC)c(C(=O)/C=C/c2ccccc2)c(OCC=C)c1 |  |  |  |  |  |  | 4.77 |  |  | 1 | 4.77
17 | C=CCOc1cc(OC)c(C(=O)/C=C/c2ccccc2F)c(OCC=C)c1 |  |  |  |  |  |  | 5.21 |  |  | 2.6 | 4.79
18 | C=CCOc1cc(OC)c(C(=O)/C=C/c2ccccc2Br)c(OCC=C)c1 |  |  |  |  |  |  | 4.86 |  |  | 1 | 4.86
19 | C=CCOc1cc(OC)c(C(=O)/C=C/c2ccc([N+](=O)[O-])cc2)c(OCC=C)c1 |  |  |  |  |  |  | 5.39 |  |  | 3.1 | 4.90
20 | C=CCOc1cc(OC)c(C(=O)/C=C/c2cc(OCC=C)c(Br)c(OCC=C)c2)c(OCC=C)c1 |  |  |  |  |  |  | 5.16 |  |  | 13.9 | 4.02
21 | COc1cc(O)cc(O)c1C(=O)/C=C/c1ccc2c(c1)OCO2 | 22.6 | 15.6 | 12.4 | 16.2 | 5.1 | 18.5 | 5.03 | 20.7 | 20.4 | 2.7 | 4.59
22 | C=CCOc1cc(OC)c(C(=O)/C=C/c2ccc(OC)cc2OC)c(OCC=C)c1 |  |  |  |  |  |  | 4.88 |  |  | 7.1 | 4.03
23 | C=CCOc1cc(OC)c(C(=O)/C=C/c2ccc(O)cc2)c(OCC=C)c1 |  |  |  |  |  |  | 4.69 |  |  | 3.8 | 4.12
24 | C=CCOc1cc(OC)c(C(=O)/C=C/c2ccc(Cl)cc2)c(OCC=C)c1 |  |  |  |  |  |  | 5.07 |  |  | 1.2 | 4.98
25 | COc1ccc(CCC(=O)c2c(O)cc(OC)cc2OC)cc1 | > 197 | > 197 | > 197 | > 197 | > 197 | > 197 | < 4.00 | > 197 | > 197 |  | 
26 | C=CCOc1cc(OC)c(C(=O)/C=C/c2ccc3c(c2)OCO3)c(OCC=C)c1 | 17.2 | 14.5 | 17.5 | 12.2 | 31.7 | 9.6 | 4.87 | 24.1 | 10.9 | 5.4 | 4.13
27 | C=CCOc1cc(OC)c(C(=O)/C=C/c2ccc(OC)cc2)c(OCC=C)c1 | 27.6 | 20 | 21 | 16.6 | 41 | 18.1 | 4.67 | 28.4 | 19.5 | 4.7 | 4.00
28 | COc1ccc(/C=C/C(=O)c2c(O)cc(OC)cc2OC)cc1 [FLAVOKAWAIN A] | 22.5 | 24.1 | 30.8 | 20.5 | 17.2 | 15.2 | < 4.60 | 45.3 | 17.5 |  | 
29 | O=c1[nH]cc(F)c(=O)[nH]1 [FLUOROURACIL] | 22.4 | 4.1 | 15.4 | 16.7 | < 1.54 | 14.6 |  | 8.9 | 6.5 |  | 
30 | CC1CS(=O)(=O)CCN1/N=C/c1ccc([N+](=O)[O-])o1 (stereo unspecified) [NIFURTIMOX] |  |  |  |  |  |  | 6.28 |  |  | 154 | 4.10
